Assay results from PubChem BioAssay AID192 (DTP/NCI, 2004).
“And” between values parts separate entries of the source, which are not always exact repeats. Equal entries are not always repeated. Inconclusive results and toxic doses are left out. The calls were made as follows: active = survival T/C of 150% or more; inactive = T/C below 125% in these data.

Test system: BDF1 mice, B16 melanoma ip, median survival T/C
Assay: NCI In Vivo Anticancer Drug Screen. Data for tumor model B16 Melanoma (intraperitoneal) in B6D2F1 (BDF1) mice
Details: endpoint: median survival time, higher = longer survival
Method: The antitumor activity of compounds was measured in mice bearing transplantable tumors. Survival or tumor size were measured and the results are expressed as the measurement made in the treated group (T) divided by the measurement made in the vehicle treated control group (C). The tumor model used in this assay is B16 Melanoma (intraperitoneal) in B6D2F1 (BDF1) mice

[1] = dose: 1.0 mg/kg/injection, schedule: Q01DX009 (ip), vehicle: saline
[2] = dose: 2.0 mg/kg/injection, schedule: Q01DX009 (ip), vehicle: saline
[3] = dose: 100.0 mg/kg/injection, schedule: Q01DX009 (ip), vehicle: Klucel (hydroxypropylcellulose) (HPC)
[4] = dose: 200.0 mg/kg/injection, schedule: Q01DX009 (ip), vehicle: Klucel (hydroxypropylcellulose) (HPC)
[5] = dose: 100.0 mg/kg/injection, schedule: Q01DX009 (ip), vehicle: saline with Tween-80
[6] = dose: 200.0 mg/kg/injection, schedule: Q01DX009 (ip), vehicle: saline with Tween-80
[7] = dose: 400.0 mg/kg/injection, schedule: Q01DX009 (ip), vehicle: Klucel (hydroxypropylcellulose) (HPC)
[8] = dose: 50.0 mg/kg/injection, schedule: Q01DX009 (ip), vehicle: saline with Tween-80
[9] = dose: 0.25 mg/kg/injection, schedule: Q01DX009 (ip), vehicle: saline
[10] = dose: 0.5 mg/kg/injection, schedule: Q01DX009 (ip), vehicle: saline
[11] = dose: 2.0 mg/kg/injection, schedule: Q04DX003 (ip), vehicle: saline
[12] = dose: 4.0 mg/kg/injection, schedule: Q04DX003 (ip), vehicle: saline

Measured: T/C

CN(C)C1CC1c1ccccc1 (stereo not given)
inactive: dose: 3.12 mg/kg/injection, schedule: Q01DX009 (ip), vehicle: saline 92 % of control | dose: 6.25 mg/kg/injection, schedule: Q01DX009 (ip), vehicle: saline 107 % of control | dose: 12.5 mg/kg/injection, schedule: Q01DX009 (ip), vehicle: saline 97 % of control | dose: 25.0 mg/kg/injection, schedule: Q01DX009 (ip), vehicle: saline 100 % of control | dose: 50.0 mg/kg/injection, schedule: Q01DX009 (ip), vehicle: saline 105 % of control | dose: 100.0 mg/kg/injection, schedule: Q01DX009 (ip), vehicle: saline 98 % of control

Cc1n(CC(C)C)c2c([n+]1C)C(=O)c1ccccc1C2=O
inactive: [1] 90 % of control | [2] 87 % of control

CCCCCCCC(=O)CC(C)C
inactive: [3] 106 % of control | [4] 86 % of control

COC(=O)C(C)CN1CCCCC1 (stereo not given)
inactive: dose: 50.0 mg/kg/injection, schedule: Q04DX003 (ip), vehicle: saline 111 % of control | dose: 100.0 mg/kg/injection, schedule: Q04DX003 (ip), vehicle: saline 111 % of control | dose: 200.0 mg/kg/injection, schedule: Q04DX003 (ip), vehicle: saline 105 % of control

ClCc1c2ccccc2c(CCl)c2ccccc12
inactive: dose: 0.75 mg/kg/injection, schedule: Q01DX009 (ip), vehicle: Klucel (hydroxypropylcellulose) (HPC) 114 % of control | dose: 1.5 mg/kg/injection, schedule: Q01DX009 (ip), vehicle: Klucel (hydroxypropylcellulose) (HPC) 119 % of control

CCOC(=O)C(C(=O)OCC)c1cc(NC(=O)c2ccccc2)ccc1NC(=O)c1ccccc1
inactive: [5] 95 % of control | [6] 91 % of control | dose: 400.0 mg/kg/injection, schedule: Q01DX009 (ip), vehicle: saline with Tween-80 89 % of control

COc1ccc2[nH]c3c(C)c4cc[n+](C)c(C)c4cc3c2c1
inactive: dose: 10.0 mg/kg/injection, schedule: Q04DX003 (ip), vehicle: water 113 % of control | dose: 20.0 mg/kg/injection, schedule: Q04DX003 (ip), vehicle: water 98 % of control | dose: 40.0 mg/kg/injection, schedule: Q04DX003 (ip), vehicle: water 105 % of control | dose: 80.0 mg/kg/injection, schedule: Q04DX003 (ip), vehicle: water 117 % of control

COc1cc2ccc3c(c2cc1OC)N(C)C(OC)c1cc2c(cc1-3)OCO2 (stereo not given)
inactive: dose: 10.0 mg/kg/injection, schedule: Q01DX009 (ip), vehicle: saline with Tween-80 119 % of control

CC1(C)C2CCC1(C)C(COC(=O)c1cc([N+](=O)[O-])cc([N+](=O)[O-])c1)C2 (stereo not given)
inactive: [3] 96 % of control | [4] 93 % of control | [7] 87 % of control

Cc1c(Cl)cccc1NC(=O)c1cccc(C(=O)Nc2cccc(Cl)c2C)c1
inactive: [3] 106 % of control | [4] 103 % of control | [7] 93 % of control

CCCCOCN(COCCCC)C(C)Cc1ccccc1 (stereo not given)
inactive: dose: 12.5 mg/kg/injection, schedule: Q01DX009 (ip), vehicle: saline with Tween-80 95 % of control and 100 % of control | dose: 25.0 mg/kg/injection, schedule: Q01DX009 (ip), vehicle: saline with Tween-80 98 % of control and 104 % of control | [8] 99 % of control and 105 % of control | [5] 106 % of control and 110 % of control | [6] 90 % of control and 100 % of control

CC1CN1c1nc(N2CC2C)nc(N2CC2C)n1 (stereo not given)
inactive: [9] 105 % of control | [10] 97 % of control | dose: 1.0 mg/kg/injection, schedule: Q01DX009 (ip), vehicle: saline with Tween-80 111 % of control | [1] 98 % of control | dose: 2.0 mg/kg/injection, schedule: Q01DX009 (ip), vehicle: saline with Tween-80 116 % of control | [2] 94 % of control | [11] 105 % of control | dose: 4.0 mg/kg/injection, schedule: Q01DX009 (ip), vehicle: saline with Tween-80 105 % of control | [12] 94 % of control | dose: 8.0 mg/kg/injection, schedule: Q01DX009 (ip), vehicle: saline with Tween-80 90 % of control | dose: 8.0 mg/kg/injection, schedule: Q04DX003 (ip), vehicle: saline 105 % of control

C[C@@H]1CN1C1=CC(=O)C(N2C[C@H]2C)=CC1=O
inactive: [9] 104 % of control | [10] 95 % of control

COc1cccc2c1C(=O)c1c(O)c3c(c(O)c1C2=O)CC(O)(C(C)=O)CC3O (stereo not given)
inactive: dose: 0.12 mg/kg/injection, schedule: Q01DX009 (ip), vehicle: saline 91 % of control | dose: 0.12 mg/kg/injection, schedule: Q04DX003 (ip), vehicle: saline 94 % of control | dose: 0.25 mg/kg/injection, schedule: Q04DX003 (ip), vehicle: saline 100 % of control | [10] 86 % of control | dose: 0.5 mg/kg/injection, schedule: Q04DX003 (ip), vehicle: saline 105 % of control | [1] 94 % of control | dose: 1.0 mg/kg/injection, schedule: Q04DX003 (ip), vehicle: saline 97 % of control | [2] 102 % of control | [11] 102 % of control | dose: 4.0 mg/kg/injection, schedule: Q01DX009 (ip), vehicle: saline 100 % of control | [12] 108 % of control | dose: 8.0 mg/kg/injection, schedule: Q01DX009 (ip), vehicle: saline 105 % of control

COc1ccc(S(=O)(=O)NC(=S)S)cc1
inactive: dose: 12.5 mg/kg/injection, schedule: Q01DX009 (ip), vehicle: water 103 % of control | dose: 25.0 mg/kg/injection, schedule: Q01DX009 (ip), vehicle: water 102 % of control | dose: 50.0 mg/kg/injection, schedule: Q01DX009 (ip), vehicle: water 100 % of control | dose: 100.0 mg/kg/injection, schedule: Q01DX009 (ip), vehicle: water 103 % of control

COc1ccc2c(c1[N+](=O)[O-])CC[C@@H]1[C@@H]2CC[C@]2(C)C(=O)CC[C@@H]12
inactive: [8] 87 % of control | [5] 89 % of control
